Reference: paper PMC8462848, “Quinazolin-4(3H)-one based potential multiple tyrosine kinase inhibitors with excellent cytotoxicity” (Journal of Enzyme Inhibition and Medicinal Chemistry, 2021)

Key:
[1] = tested on: MCF7 (human breast adenocarcinoma) cells; test: MTT cytotoxicity assay, MCF7; assay type: cell-based
Protocol: (§1) The cytotoxicity of the synthesised quinazolin-4(3H)-ones was evaluated by MTT assay, as previously described. Two cancer cell lines, MCF7 (human breast adenocarcinoma) and A2780 (human ovary adenocarcinoma), were used in this study, which were obtained from the ATCC (Rockville, MD, USA). […] Additionally, compounds were prepared at the same medium to obtain serial dilutions (50, 25, […] and 0.1 µM). […] The media were aspirated, and the formazan crystals were solubilised by adding 150 µL DMSO. Absorbance was read on a multi-plate reader (BioRad) at […]. […] The data were obtained from triplicates and analysed using statistical software.

[2] = tested on: A2780 (human ovary adenocarcinoma) cells; test: MTT cytotoxicity assay, A2780; assay type: cell-based
Protocol: as §1

EGFR = target: T1, EGFR (Homo sapiens, UniProt P00533); test: EGFR kinase assay kit, Kinase-Glo MAX luminescence; assay type: biochemical; conditions: for inhibition at 0.01 µM / inhibition at 0.1 µM / inhibition at 1 µM / inhibition at 10 µM: one experimental data; for IC50: mean ± SD of triplicate
T1 construct: purchased #40321
Protocol: (§2) The HER2/EGFR/VEGFR2 assay kit is designed to measure HER2/EGFR/VEGFR-2 inhibitory activity for screening and profiling applications, using Kinase-Glo® MAX as a detection reagent. The HER2/EGFR/VEGFR2 assay kit comes in a convenient 96-well format, with enough purified recombinant HER2/EGFR/VEGFR2 enzyme, HER2/EGFR/VEGFR2 substrate, ATP and kinase buffer 1 for 100 enzyme reactions. […] […] The quinazolin-4(3H)-ones were diluted in 10% DMSO and 5 μl of the dilution was added to a 50 μl reaction so that the final concentration of DMSO was 1% in all of the reactions. All of the enzymatic reactions were conducted at 30 °C for 40 min. The 50 μl reaction mixture contained 40 mM Tris, pH 7.4, 10 mM MgCl2, 0.1 mg/mL BSA, 1 mM DTT, 10 mM ATP, kinase substrate and the enzyme HER2 / EGFR / VEGFR2. After the enzymatic reaction, 50 μl of Kinase-Glo® MAX luminescence kinase assay solution was added to each reaction and the plates were incubated for 5 min at room temperature. Luminescence signal was measured using a Bio Tek Synergy 2 microplate reader (For detail enzyme assay protocol and the results, please see supplementary data).

CDK2/CyclinA2 [3] = target: T2, CDK2/CyclinA2 (Homo sapiens, UniProt P24941); test: CDK2 Assay Kit, Kinase-Glo MAX luminescence; assay type: biochemical; conditions: one experimental data
T2 construct: purchased #79599
Protocol: The CDK2 Assay Kit is designed to measure CDK2/CyclinA2 activity for screening and profiling applications, using Kinase-Glo® MAX as a detection reagent. The CDK2 Assay Kit comes in a convenient 96-well format, with enough purified recombinant CDK2/CyclinA2 enzyme, CDK substrate peptide, ATP and kinase assay buffer for 100 enzyme reactions. […] […] The compounds were diluted in 10% DMSO and 5 μl of the dilution was added to a 50 μl reaction so that the final concentration of DMSO was 1% in all of the reactions. All of the enzymatic reactions were conducted at 30 °C for 40 min. The 50 μl reaction mixture contained 40 mM Tris, pH 7.4, 10 mM MgCl2, 0.1 mg/mL BSA, 1 mM DTT, 10 mM ATP, Kinase substrate and the enzyme (CDK2/CyclinA2). After the enzymatic reaction, 50 μl of Kinase-Glo® MAX Luminescence kinase assay solution was added to each reaction and the plates were incubated for 5 min at room temperature. Luminescence signal was measured using a Bio Tek Synergy 2 microplate reader.
Figure S1. Calculation of the IC20 Values of Protein Kinase Enzyme CDK2 for 2f
* All the kinase IC20 (µM) were calculated according to the above equations.
(1 picture or pasted object on this page, not shown here)

HER2 = target: T3, HER2 (Homo sapiens, UniProt P04626); test: HER2 kinase assay kit, Kinase-Glo MAX luminescence; assay type: biochemical; conditions: for inhibition at 0.01 µM / inhibition at 0.1 µM / inhibition at 1 µM / inhibition at 10 µM: one experimental data; for IC50: mean ± SD of triplicate
T3 construct: purchased #40721
Protocol: as §2

CDK2/CyclinA2 [4] = target: T2, CDK2/CyclinA2; test: CDK2 Assay Kit, Kinase-Glo MAX luminescence; assay type: biochemical; conditions: mean ± SD of triplicate
VEGFR2 = target: T4, VEGFR2 (Homo sapiens, UniProt P35968); test: VEGFR2 kinase assay kit, Kinase-Glo MAX luminescence; assay type: biochemical; conditions: for inhibition at 0.01 µM / inhibition at 0.1 µM / inhibition at 1 µM / inhibition at 10 µM: one experimental data, read-out: % Inhibition VEGFR-2; for IC50: mean ± SD of triplicate
T4 construct: purchased #40325
Protocol: as §2

[5] = Homo sapiens, MCF7, mean ± SD of triplicate
[6] = Homo sapiens, A2780, mean ± SD of triplicate

T4 sequence (P35968 20-1356): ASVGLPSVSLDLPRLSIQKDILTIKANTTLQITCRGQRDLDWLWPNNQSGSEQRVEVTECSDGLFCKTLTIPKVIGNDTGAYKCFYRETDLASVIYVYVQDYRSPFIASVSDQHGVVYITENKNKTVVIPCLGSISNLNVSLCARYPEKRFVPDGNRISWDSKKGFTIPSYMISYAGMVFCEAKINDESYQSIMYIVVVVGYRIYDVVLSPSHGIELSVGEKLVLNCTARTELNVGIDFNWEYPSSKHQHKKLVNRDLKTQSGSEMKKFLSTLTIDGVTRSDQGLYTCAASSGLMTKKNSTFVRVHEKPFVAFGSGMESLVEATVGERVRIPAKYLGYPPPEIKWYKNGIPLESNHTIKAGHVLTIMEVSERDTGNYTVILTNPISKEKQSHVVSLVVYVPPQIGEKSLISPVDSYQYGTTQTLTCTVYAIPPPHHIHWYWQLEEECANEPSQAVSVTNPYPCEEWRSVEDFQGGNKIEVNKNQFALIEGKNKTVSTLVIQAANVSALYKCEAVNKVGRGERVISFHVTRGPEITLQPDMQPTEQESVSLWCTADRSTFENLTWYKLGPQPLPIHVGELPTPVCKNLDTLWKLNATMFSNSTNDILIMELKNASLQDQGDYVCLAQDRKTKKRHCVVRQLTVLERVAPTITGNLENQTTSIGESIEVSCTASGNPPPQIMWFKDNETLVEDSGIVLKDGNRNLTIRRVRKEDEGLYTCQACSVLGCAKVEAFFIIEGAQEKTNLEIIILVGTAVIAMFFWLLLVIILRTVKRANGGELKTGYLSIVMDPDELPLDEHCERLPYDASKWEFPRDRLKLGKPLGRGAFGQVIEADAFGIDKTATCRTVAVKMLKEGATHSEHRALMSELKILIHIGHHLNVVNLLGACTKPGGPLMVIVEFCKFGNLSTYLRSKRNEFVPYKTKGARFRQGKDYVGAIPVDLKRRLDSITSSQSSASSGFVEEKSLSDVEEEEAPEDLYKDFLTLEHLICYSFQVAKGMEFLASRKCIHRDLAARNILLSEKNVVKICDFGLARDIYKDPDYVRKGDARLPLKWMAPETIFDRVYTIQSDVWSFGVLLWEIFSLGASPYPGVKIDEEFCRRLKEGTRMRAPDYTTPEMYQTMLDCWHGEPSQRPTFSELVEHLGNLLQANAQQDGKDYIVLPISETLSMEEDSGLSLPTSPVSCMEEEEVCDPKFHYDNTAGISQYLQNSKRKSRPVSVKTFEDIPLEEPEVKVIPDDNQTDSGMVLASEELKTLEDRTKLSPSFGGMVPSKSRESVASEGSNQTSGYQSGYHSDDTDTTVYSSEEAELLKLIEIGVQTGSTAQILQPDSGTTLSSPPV
T1 sequence (P00533 25-1210): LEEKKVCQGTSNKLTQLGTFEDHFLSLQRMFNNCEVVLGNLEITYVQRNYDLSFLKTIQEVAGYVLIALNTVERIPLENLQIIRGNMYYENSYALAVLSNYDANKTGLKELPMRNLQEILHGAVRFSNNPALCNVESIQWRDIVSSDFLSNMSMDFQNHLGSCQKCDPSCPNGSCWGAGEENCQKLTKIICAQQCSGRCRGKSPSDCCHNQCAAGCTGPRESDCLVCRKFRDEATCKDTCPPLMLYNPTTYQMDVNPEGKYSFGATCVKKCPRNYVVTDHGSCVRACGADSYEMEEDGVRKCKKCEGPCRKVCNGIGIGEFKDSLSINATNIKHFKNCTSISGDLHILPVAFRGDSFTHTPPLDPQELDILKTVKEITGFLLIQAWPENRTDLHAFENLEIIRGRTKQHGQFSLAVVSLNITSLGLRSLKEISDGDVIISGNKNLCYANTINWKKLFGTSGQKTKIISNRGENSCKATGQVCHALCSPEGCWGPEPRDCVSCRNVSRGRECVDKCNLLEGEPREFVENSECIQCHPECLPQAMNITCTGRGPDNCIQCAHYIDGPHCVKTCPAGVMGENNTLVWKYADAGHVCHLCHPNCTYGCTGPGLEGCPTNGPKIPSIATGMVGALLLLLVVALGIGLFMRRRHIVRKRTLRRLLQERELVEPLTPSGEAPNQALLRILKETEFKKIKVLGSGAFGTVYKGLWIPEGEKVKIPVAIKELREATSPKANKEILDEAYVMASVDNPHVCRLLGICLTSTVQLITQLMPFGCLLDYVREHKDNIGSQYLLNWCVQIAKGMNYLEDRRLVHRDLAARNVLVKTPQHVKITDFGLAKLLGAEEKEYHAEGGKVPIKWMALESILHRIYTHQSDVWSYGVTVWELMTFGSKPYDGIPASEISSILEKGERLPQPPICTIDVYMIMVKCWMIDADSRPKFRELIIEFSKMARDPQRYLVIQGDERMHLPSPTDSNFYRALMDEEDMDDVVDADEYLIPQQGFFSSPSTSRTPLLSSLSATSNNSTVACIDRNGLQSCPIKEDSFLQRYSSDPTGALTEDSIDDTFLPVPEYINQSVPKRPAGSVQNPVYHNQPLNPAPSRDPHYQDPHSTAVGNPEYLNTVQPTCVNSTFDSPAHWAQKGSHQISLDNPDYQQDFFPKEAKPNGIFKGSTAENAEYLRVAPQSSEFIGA
T3 sequence (P04626 23-1255): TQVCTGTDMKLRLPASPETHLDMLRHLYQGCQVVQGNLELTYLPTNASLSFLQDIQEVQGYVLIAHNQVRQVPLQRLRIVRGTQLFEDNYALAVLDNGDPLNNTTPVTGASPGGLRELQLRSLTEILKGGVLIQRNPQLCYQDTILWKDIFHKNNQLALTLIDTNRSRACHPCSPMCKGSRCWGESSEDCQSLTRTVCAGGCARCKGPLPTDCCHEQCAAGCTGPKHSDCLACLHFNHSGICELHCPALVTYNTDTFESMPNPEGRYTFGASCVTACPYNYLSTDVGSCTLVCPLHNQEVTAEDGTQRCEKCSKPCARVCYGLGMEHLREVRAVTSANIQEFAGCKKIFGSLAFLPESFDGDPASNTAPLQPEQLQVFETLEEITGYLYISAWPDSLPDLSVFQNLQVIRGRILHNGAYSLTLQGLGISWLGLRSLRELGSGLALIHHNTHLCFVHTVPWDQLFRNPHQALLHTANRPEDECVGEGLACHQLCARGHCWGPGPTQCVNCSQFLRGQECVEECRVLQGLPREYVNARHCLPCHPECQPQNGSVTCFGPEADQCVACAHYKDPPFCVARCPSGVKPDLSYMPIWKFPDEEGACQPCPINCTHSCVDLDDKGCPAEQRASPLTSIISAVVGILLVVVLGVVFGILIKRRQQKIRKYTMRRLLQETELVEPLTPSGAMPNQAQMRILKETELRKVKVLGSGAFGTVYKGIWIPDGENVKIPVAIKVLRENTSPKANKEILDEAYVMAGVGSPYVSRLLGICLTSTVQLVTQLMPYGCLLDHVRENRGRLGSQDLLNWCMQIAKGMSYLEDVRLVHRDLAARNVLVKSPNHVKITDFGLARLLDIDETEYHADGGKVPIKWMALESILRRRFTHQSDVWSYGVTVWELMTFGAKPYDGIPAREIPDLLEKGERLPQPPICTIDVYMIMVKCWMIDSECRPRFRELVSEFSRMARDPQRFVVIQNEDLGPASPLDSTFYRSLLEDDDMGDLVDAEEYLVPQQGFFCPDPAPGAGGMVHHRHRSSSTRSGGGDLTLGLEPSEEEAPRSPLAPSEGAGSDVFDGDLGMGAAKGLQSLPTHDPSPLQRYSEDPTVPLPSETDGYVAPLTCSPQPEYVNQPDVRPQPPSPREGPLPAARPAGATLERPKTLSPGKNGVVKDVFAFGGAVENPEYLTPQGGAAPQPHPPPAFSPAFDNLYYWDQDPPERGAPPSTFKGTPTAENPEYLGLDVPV

Compound | melting point [°C] | inhibition at 0.01 µM (EGFR) [%] | inhibition at 0.1 µM (EGFR) [%] | inhibition at 1 µM (EGFR) [%] | inhibition at 10 µM (EGFR) [%] | IC50 (EGFR) [nM] | inhibition at 0.01 µM (CDK2/CyclinA2 [3]) [%] | inhibition at 0.1 µM (CDK2/CyclinA2 [3]) [%] | inhibition at 1 µM (CDK2/CyclinA2 [3]) [%] | inhibition at 10 µM (CDK2/CyclinA2 [3]) [%] | inhibition at 0.01 µM (HER2) [%] | inhibition at 0.1 µM (HER2) [%] | inhibition at 1 µM (HER2) [%] | inhibition at 10 µM (HER2) [%] | IC50 (HER2) [nM] | IC50 (CDK2/CyclinA2 [4]) [nM] | inhibition at 0.01 µM (VEGFR2) [%] | inhibition at 0.1 µM (VEGFR2) [%] | IC50 [1, 5] [nM] | IC50 [2, 6] [nM] | also measured
2-((5-Chloro-6-methyl-4-oxo-3-phenyl-3,4-dihydroquinazolin-2-yl)thio)acetohydrazide [3e] | – | – | – | – | – | – | – | – | – | – | – | – | – | – | – | – | – | – | – | – | IC50 ([1]; mean ± SD of triplicate): 740 ± 230 nM; IC50 ([2]; mean ± SD of triplicate): 920 ± 110 nM
CCOC(=O)CSc1nc2ccc(Cl)cc2c(=O)n1-c1ccccc1 [2a, Ethyl 2-((6-chloro-4-oxo-3-phenyl-3,4-dihydroquinazolin-2-yl)thio)acetate] | 85 to 87 | – | – | – | – | – | – | – | – | – | – | – | – | – | – | – | – | – | 1500 ± 10 | 2050 ± 640 | –
CCOC(=O)CSc1nc2ccc(F)cc2c(=O)n1-c1ccccc1 [2b, Ethyl 2-((6-fluoro-4-oxo-3-phenyl-3,4-dihydroquinazolin-2-yl)thio)acetate] | 124 to 127 | – | – | – | – | – | – | – | – | – | – | – | – | – | – | – | – | – | 15720 ± 70 | 2980 ± 300 | –
CCOC(=O)CSc1nc2c(F)cc(F)cc2c(=O)n1-c1ccccc1 [2c, Ethyl 2-((6,8-difluoro-4-oxo-3-phenyl-3,4-dihydroquinazolin-2-yl)thio)acetate] | 151 to 153 | – | – | – | – | – | – | – | – | – | – | – | – | – | – | – | – | – | 730 ± 180 | 490 ± 50 | –

Further lines, with some results ahead:

melting point [°C] | inhibition at 0.01 µM (EGFR) [%] | inhibition at 0.1 µM (EGFR) [%] | inhibition at 1 µM (EGFR) [%] | inhibition at 10 µM (EGFR) [%] | IC50 (EGFR) [nM] | inhibition at 0.01 µM (CDK2/CyclinA2 [3]) [%] | inhibition at 0.1 µM (CDK2/CyclinA2 [3]) [%] | inhibition at 1 µM (CDK2/CyclinA2 [3]) [%] | inhibition at 10 µM (CDK2/CyclinA2 [3]) [%] | inhibition at 0.01 µM (HER2) [%] | inhibition at 0.1 µM (HER2) [%] | inhibition at 1 µM (HER2) [%] | inhibition at 10 µM (HER2) [%] | IC50 (HER2) [nM] | IC50 (CDK2/CyclinA2 [4]) [nM] | inhibition at 0.01 µM (VEGFR2) [%] | inhibition at 0.1 µM (VEGFR2) [%] | Compound | IC50 [1, 5] [nM] | IC50 [2, 6] [nM] | also measured
145 to 146 | – | – | – | – | – | – | – | – | – | – | – | – | – | – | – | – | – | CCOC(=O)CSc1nc2cc(OC)c(OC)cc2c(=O)n1-c1ccccc1 [2d, Ethyl 2-((6,7-dimethoxy-4-oxo-3-phenyl-3,4-dihydroquinazolin-2-yl)thio)acetate] | 1560 ± 20 | 1230 ± 100 | –
73 to 75 | 2.18 | 19.1 | 29.2 | 83.2 | 584 ± 11 | 4.32 | 31.2 | 32.9 | 84 | 2.33 | 38.9 | 74.8 | 89.8 | 264 ± 13 | 424 ± 12 | 3.49 | 20.2 | CCOC(=O)CSc1nc2ccc(Cl)cc2c(=O)n1Cc1ccccc1 [2f, Ethyl 2-((3-benzyl-6-chloro-4-oxo-3,4-dihydroquinazolin-2-yl)thio)acetate] | 1560 ± 240 | 1320 ± 430 | inhibition at 1 µM (VEGFR2): 40.1%; inhibition at 10 µM (VEGFR2): 38.3%; IC50 (VEGFR2): 1920 ± 21 nM
110 to 111 | 22.9 | 48.9 | 80.1 | 91.2 | 232 ± 30 | 8.38 | 20.7 | 78.2 | 91.4 | 17.3 | 44.2 | 83.5 | 94.4 | 884 ± 16 | 444 ± 11 | 2.43 | 18.8 | CCOC(=O)CSc1nc2ccc(F)cc2c(=O)n1Cc1ccccc1 [2g, Ethyl 2-((3-benzyl-6-fluoro-4-oxo-3,4-dihydroquinazolin-2-yl)thio)acetate] | 1220 ± 170 | 2400 ± 200 | inhibition at 1 µM (VEGFR2): 44.1%; inhibition at 10 µM (VEGFR2): 29.2%; IC50 (VEGFR2): 702 ± 13 nM
120 to 123 | 3.71 | 27.5 | 21 | 77.3 | 102 ± 14 | 2.43 | 12.5 | 24.4 | 80.2 | 9.07 | 38.9 | 32.3 | 82.3 | 138 ± 12 | 318 ± 23 | 13.3 | 38.9 | CCOC(=O)CSc1nc2c(F)cc(F)cc2c(=O)n1Cc1ccccc1 [2h, Ethyl 2-((3-benzyl-6,8-difluoro-4-oxo-3,4-dihydroquinazolin-2-yl)thio)acetate] | 840 ± 160 | 1400 ± 340 | inhibition at 1 µM (VEGFR2): 70.8%; inhibition at 10 µM (VEGFR2): 88%; IC50 (VEGFR2): 2190 ± 24 nM
